Experiments:
PRMT5 = target: T1, PRMT5 (Homo sapiens, UniProt O14744); assay: Steady-state kinetic analysis of PRMT5 inhibition (time-dependent inhibition assay); format: biochemical
T1 construct: His6; made in house; host or cells: E. coli BL21(ED3) [sic]
Experimental: Different amounts of compound C2 or C5 were present in the final methylation reaction mixtures with 1.2 μg of PRMT5, 5 μM AdoMet, 2 μCi of H^3-AdoMet and various concentrations of SmD3. After a 10-, 20- or 30-min incubation at 30 °C or no incubation, the reaction mixtures were spread onto DE81 chromatography paper discs and the amounts of methylated products were quantified by liquid scintillation. Amounts (counts per minute [cpm]) of methylated products and incubation time (minutes) were plotted and reaction velocity (cpm per minute) was deduced.
To understand the mechanism of inhibition of identified compounds, we analyzed the kinetic pattern of inhibition using steady-state enzymatic measurements. The velocities of PRMT5 methylation of SmD3 were measured at several selected concentrations of compounds C2 and C5 over a range of SmD3 concentrations. Plotted in the double-reciprocal format with 1/velocity versus 1/[SmD3]
Fig 5 Steady-state kinetic analysis of PRMT5 inhibition by compounds C2 and C5. Double-reciprocal plot of reaction velocities (cpm per minute) versus concentrations of SmD3. Methylation reaction mixtures contained various concentrations of C2 (left) or C5 (right), various concentrations of SmD3, 1.2 μg of PRMT5 and 5 μM AdoMet. The mixtures were incubated for different times and the amounts of methylated products were quantified using DE81 paper and liquid scintillation. Reaction velocity was calculated as H^3 incorporation (cpm) into SmD3 per minute.

[1] = test system: A549 lung tumor xenografts; assay: Orthotopic lung tumor xenograft model; format: in vivo, nude mice; details: 100 mg/kg oral gavage daily
Experimental: Six-week old nude mice were purchased from the National Cancer Institute and maintained in a barred animal facility. Cell injection into the mouse lung was performed as described previously. Mice were treated with vehicle [0.1 ml, 0.5% (w/v) carboxymethycellulose plus 0.5% Tween 80] by oral gavage or the compound dissolved in the vehicle (0.1 ml, 100 mg/kg) for 21 days. The lungs of the mice were then removed, fixed with formaldehyde and embedded in paraffin. Paraffin-embedded lung tissue sections (4 μm) were stained with H&E and evaluated for tumors. The tumor areas in lungs were quantified using the ImageJ software program (NIH).
We used the orthotopic lung tumor model to determine effects of the compound C9a on growth of lung cancer xenografts. A549 cells were injected into the lung of nude mouse as previously reported by us. Mice were randomized and divided into two groups: (a) control mice (n = 5): administration of the vehicle [0.5% (w/v) carboxymethycellulose plus 0.5% Tween 80] by oral gavage daily; (b) treated mice (n = 10): administration of the compound C9a in the vehicle at the dosage of 100 mg/kg by oral gavage daily. […]
Fig 9 The compound C9a inhibited growth of lung tumor xenografts in nude mice. […] Histones were isolated from tumors and analyzed by SDS-PAGE stained with Commassie blue R250 (bottom) or by Western blot with anti-symmetric dimethyl arginine antibody (SYM10) (top).

[2] = Toxicity observed after intraperitoneal injection; format: in vivo, BALB/c mice; details: 100 mg/kg
Experimental: The obtained 3 compounds (C5, C9, and C11) have characteristics of Lipinski’s rule-of-five, which defines four physicochemical parameters found in a set of active drugs which made them into phase II clinical trials. We chose one compound (C9) to analyze its pharmacokinetic parameters in the mouse. BALB/c mice were randomized and administrated compound C9 (dissolved in 5% DMSO and 0.5% Tween 80) at dosages of 25, 50 and 100 mg/kg by intraperitoneal (I.P.) injection. Mice were sacrificed and blood samples were collected at different time points after administration of compounds. The compound concentrations in plasma samples were measured (S1 Fig). […] However, we observed the high toxicity of the compound in the mouse at the dosage of 100 mg/kg.

T1 sequence (O14744 whole entry): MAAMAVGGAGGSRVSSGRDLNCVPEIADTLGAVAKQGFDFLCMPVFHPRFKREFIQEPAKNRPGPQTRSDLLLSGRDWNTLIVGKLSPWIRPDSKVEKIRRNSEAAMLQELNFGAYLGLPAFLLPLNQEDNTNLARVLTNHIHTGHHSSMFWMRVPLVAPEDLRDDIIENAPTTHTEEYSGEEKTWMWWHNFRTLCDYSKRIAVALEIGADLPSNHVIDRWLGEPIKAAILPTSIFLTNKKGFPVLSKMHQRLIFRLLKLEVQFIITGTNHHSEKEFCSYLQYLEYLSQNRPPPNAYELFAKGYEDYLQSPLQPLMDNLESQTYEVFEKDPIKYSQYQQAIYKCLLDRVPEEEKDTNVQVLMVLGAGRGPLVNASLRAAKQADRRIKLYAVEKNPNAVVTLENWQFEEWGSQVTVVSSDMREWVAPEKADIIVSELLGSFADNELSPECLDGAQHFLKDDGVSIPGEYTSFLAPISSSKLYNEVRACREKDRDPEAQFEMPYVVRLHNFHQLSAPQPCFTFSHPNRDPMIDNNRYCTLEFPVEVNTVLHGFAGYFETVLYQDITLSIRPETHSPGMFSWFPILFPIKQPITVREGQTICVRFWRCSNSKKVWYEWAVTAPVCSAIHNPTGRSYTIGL

CCn1c(=O)[nH]c2cc(C(=O)Nc3ccc(OC)cc3)ccc2c1=O [Compound C5]
mode of inhibition with regard to SAM (PRMT5): not competitive inhibitors
mode of inhibition with regard to the SmD3 substrate (PRMT5; double-reciprocal plot): competitive inhibitors

Nc1cccc(Nc2ncnc3c2cnn3Cc2ccccc2)c1 [Compound C9a]
average tumor size (tumor area mean) in control mice relative to treated mice ([1]; 3 weeks): 7.2 fold
effect on growth of mice (body weight) ([1]; 21 days): retarded growth of mice

COc1ccc(Nc2ncnc3c2cnn3Cc2ccc(C)cc2)cc1 [Compound C9]
toxicity in the mouse [2]: high toxicity
